# Assay results published in ChEMBL document CHEMBL1201862, “PubChem BioAssay data set” (2004).
# Activity calls are given as the source filed them.
# Assays:
# [1] = target: T1, Heat shock factor protein 1 (Mus musculus, UniProt P38532); assay: HSF1 potentiators in luciferase reporter cells, confirmation, cell-based, NIH3T3, luminescence, dose retest (AID 435004); type: functional;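 note: stress induced by proteasome inhibitor MG132 added 30 min after compound; luciferase reporter driven by HSF1 response element in NIH3T3 cells; actives raise luminescence as potentiators of the MG132 stress response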
# T1 sequence (P38532 whole entry): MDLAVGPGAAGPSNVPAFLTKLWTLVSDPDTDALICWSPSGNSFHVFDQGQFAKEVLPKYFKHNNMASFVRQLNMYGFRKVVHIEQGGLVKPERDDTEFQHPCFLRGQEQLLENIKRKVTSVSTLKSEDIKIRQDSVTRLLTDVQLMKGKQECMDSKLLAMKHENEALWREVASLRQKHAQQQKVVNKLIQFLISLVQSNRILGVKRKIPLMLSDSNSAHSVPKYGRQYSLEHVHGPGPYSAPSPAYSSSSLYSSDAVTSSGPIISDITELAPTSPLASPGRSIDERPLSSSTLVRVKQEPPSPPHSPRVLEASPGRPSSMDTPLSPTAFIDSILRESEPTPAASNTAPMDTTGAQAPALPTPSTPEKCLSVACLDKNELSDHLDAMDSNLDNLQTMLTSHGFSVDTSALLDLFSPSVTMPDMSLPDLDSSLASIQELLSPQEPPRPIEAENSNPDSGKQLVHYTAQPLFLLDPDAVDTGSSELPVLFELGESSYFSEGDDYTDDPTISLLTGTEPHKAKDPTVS
# [2] = target: Cytochrome P450 3A4 (Homo sapiens, UniProt P08684);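 note: CYP3A4 tested as one member of a cytochrome P450 panel screen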
# [3] = target: Cytochrome P450 2C19 (Homo sapiens, UniProt P33261); assay: Cytochrome panel assay with activity outcomes. Panel member name: p450-cyp2c19 Compounds with AC50 equal or less than 10 uM are considered active; type: functional; settings: read-out: AC50
# [4] = target: Cytochrome P450 2D6 (Homo sapiens, UniProt P10635);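 note: CYP2D6 member of a cytochrome P450 panel assay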
# [5] = system: Streptococcus sp. 'group A'; assay: growth inhibition of control SK(-) GAS strain, dose response, counter-screen for streptokinase expression inhibitor project, luminescence, kanamycin, BacTiterGlo, confirmation (AID 1900); type: functional, organism-based
# [6] = HEp-2 cell cytotoxicity, dose response, cytotoxicity control for RSV inhibitor project, HTS (AID 2410); type: functional; settings: human respiratory syncytial virus
# [7] = target: T2, Streptokinase A (Streptococcus pyogenes serotype M1, UniProt P10520); assay: S. pyogenes streptokinase expression inhibitors, potency, dose response, plasminogen activation absorbance, OD405 (AID 1914); type: functional, Streptococcus pyogenes M1 GAS;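 note: secreted streptokinase activity via plasminogen activation per viability signal from cell pellet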
# T2 sequence (P10520 whole entry): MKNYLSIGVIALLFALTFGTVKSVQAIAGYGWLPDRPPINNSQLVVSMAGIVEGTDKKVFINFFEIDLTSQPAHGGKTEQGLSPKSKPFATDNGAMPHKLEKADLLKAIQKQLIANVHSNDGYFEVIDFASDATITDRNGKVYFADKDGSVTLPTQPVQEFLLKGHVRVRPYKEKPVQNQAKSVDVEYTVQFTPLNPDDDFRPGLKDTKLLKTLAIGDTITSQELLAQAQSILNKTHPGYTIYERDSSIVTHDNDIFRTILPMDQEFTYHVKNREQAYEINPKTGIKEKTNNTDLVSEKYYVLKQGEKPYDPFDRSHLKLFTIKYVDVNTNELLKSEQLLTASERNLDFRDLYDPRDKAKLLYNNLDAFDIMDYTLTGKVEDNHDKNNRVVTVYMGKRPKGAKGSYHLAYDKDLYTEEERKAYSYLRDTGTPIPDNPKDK
# [8] = system: Streptococcus; assay: Group A Streptococcus viability loss, dose response, counter-screen for streptokinase expression inhibitor project, luminescence, BacTiterGlo (AID 1915); type: functional, organism-based;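 note: potency for reduction of bacterial viability or growth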
# [9] = target: Cytochrome P450 2C9 (Homo sapiens, UniProt P11712)
# Chain of Cytochrome P450 2C9 (P11712 whole entry): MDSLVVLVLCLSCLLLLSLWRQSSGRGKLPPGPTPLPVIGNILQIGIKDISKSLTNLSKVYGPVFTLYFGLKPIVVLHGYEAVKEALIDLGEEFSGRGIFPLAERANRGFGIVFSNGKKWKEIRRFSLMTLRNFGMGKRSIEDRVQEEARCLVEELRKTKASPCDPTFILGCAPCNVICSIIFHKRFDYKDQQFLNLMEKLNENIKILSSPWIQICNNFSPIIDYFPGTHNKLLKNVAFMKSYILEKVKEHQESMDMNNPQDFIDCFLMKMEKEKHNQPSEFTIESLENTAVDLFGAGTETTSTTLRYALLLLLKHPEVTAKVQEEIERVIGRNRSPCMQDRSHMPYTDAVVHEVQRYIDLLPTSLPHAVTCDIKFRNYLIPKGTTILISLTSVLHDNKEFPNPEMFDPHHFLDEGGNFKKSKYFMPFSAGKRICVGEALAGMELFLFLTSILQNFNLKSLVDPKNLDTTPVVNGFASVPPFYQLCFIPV
# Chain of Cytochrome P450 3A4 (P08684 whole entry): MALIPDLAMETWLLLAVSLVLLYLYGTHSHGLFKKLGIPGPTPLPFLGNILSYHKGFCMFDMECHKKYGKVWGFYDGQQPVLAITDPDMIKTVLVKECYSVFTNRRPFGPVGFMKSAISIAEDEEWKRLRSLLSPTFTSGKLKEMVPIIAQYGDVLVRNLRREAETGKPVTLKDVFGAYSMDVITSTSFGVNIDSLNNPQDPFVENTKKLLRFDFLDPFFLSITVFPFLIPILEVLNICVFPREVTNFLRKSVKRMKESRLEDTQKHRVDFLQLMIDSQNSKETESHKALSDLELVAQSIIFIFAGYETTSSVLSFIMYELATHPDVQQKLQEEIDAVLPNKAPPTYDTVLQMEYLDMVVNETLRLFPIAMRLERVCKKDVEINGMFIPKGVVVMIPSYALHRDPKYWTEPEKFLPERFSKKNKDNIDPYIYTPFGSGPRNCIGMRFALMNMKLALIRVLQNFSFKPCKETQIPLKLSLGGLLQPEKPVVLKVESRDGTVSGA
# Chain of Cytochrome P450 2D6 (P10635 whole entry): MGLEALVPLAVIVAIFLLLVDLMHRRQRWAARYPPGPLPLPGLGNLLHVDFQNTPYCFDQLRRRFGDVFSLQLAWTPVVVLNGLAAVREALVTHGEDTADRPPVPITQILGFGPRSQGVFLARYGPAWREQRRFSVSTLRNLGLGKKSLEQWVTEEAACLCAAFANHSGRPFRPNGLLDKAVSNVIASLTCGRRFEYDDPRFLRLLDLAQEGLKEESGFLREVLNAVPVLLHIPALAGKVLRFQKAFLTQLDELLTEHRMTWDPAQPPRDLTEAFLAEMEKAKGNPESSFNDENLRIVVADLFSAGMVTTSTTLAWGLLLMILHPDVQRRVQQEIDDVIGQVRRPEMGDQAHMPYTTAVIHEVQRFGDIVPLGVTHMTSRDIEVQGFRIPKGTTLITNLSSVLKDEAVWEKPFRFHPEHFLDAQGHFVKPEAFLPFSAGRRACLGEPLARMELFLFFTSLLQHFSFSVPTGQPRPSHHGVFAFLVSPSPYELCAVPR
# Chain of Cytochrome P450 2C19 (P33261 whole entry): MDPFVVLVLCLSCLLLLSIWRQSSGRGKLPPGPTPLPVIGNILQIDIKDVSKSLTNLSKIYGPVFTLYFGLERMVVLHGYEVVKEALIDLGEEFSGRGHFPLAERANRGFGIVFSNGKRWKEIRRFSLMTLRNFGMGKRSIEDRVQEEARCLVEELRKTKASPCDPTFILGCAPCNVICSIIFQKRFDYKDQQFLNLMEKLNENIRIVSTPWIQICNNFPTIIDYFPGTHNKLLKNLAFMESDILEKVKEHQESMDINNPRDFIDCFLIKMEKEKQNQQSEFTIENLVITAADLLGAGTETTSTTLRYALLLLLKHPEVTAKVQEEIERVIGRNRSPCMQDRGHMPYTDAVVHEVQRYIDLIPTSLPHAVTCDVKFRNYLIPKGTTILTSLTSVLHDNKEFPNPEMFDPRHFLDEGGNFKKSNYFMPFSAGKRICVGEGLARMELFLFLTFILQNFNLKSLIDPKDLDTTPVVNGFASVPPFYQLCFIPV
compound,measurement,setting,value
Cc1ccc(S(=O)(=O)n2cnc3ccccc32)cc1[N+](=O)[O-],EC50,[1],> 260 µM (inactive)
CSc1nc(Sc2cccc(Cl)c2)c2ccccc2n1,AC50,[2],35.5 µM (inconclusive)
N#Cc1cccc(-c2cncnc2-n2ccnc2)c1,AC50,[3],39.8 µM (inconclusive)
same,AC50,[4],39.8 µM (inconclusive)
CCc1ccccc1NC(=O)COc1ccc2c(=O)c(Oc3cc(C)ccc3C)coc2c1,EC50,[1],> 260 µM (inactive)
N#C/C(=C(/O)CN1CCN(c2ccccc2F)CC1)c1nc(-c2ccccc2)cs1,EC50,[5],11.7 µM (active)
same,CC50,[6],5 µM (active)
same,EC50,[7],> 150 µM (not active)
same,EC50,[8],86.1 µM (active)
CN1CCN(c2ccnc(-c3ccoc3)n2)CC1,AC50,[4],39.8 µM (inconclusive)
CN(C)CC(C)(C)CN1c2ccccc2Sc2ccccc21,AC50,[3],2 µM (inconclusive)
same,AC50,[2],5.01 µM (inconclusive)
Cc1n[nH]c(C)c1CCCOc1ccccc1,EC50,[5],> 150 µM (not active)
same,EC50,[7],> 150 µM (not active)
same,EC50,[8],> 150 µM (not active)
CN(C)Cc1cc(C(F)(F)F)ccc1C(O)(c1ccccc1)c1ccccc1,AC50,[4],3.16 µM (inconclusive)
COc1ccccc1N1CCN(C(=O)c2ccc3c(=O)n(Cc4ccco4)c(=S)[nH]c3c2)CC1,EC50,[1],> 260 µM (inactive)
CC1=C(Nc2c(C)cc(O)cc2O)C(=O)C=c2oc3c(c21)C(C)=C(Nc1c(C)cc(O)cc1O)C(=O)C=3,AC50,[4],2.51 µM (inconclusive)
COc1cccc(-c2ccc3ncnc(N4CCN(C)CC4)c3c2)c1,AC50,[3],31.6 µM (inconclusive)
same,AC50,[4],39.8 µM (inconclusive)
Cc1ccc(-c2nc3ncccn3c2Nc2ccccc2C)o1,EC50,[1],> 260 µM (inactive)
CCc1ccccc1N=C(S)NC1CC2CCC(C1)N2Cc1ccco1 (configuration not stated),AC50,[2],20 µM (inconclusive)
same,AC50,[4],14.1 µM (inconclusive)
CCC/C=C(\CCC)C(NC(=O)c1ccc(C(F)(F)F)cc1)c1ccc(C(F)(F)F)cc1 (configuration not stated),AC50,[2],10 µM (inconclusive)
CCNc1ncc2ncc(=O)n(Cc3cccs3)c2n1,AC50,[9],15.8 µM (inconclusive)
same,AC50,[3],20 µM (inconclusive)
same,AC50,[2],20 µM (inconclusive)
Cc1ccc(S(=O)(=O)N[C@@H](CCc2ccccc2)CC(=O)C(C)(C)C)cc1,AC50,[4],3.16 µM (inconclusive)
O=C(c1ccc(Cl)c(Cl)c1)c1cc(-c2ccccn2)c(N2CCOCC2)s1,AC50,[4],10 µM (inconclusive)
Cn1c(-c2sc(=S)n(-c3ccccc3)c2N)nc2ccccc21,AC50,[4],1.26 µM (inconclusive)
COCCCNCCOc1ccc(C)cc1[N+](=O)[O-],EC50,[1],> 260 µM (inactive)
CCOC(=O)C1=C(CN2CCc3ccccc32)NC(=O)NC1c1ccc(Cl)cc1 (configuration not stated),EC50,[1],> 260 µM (inactive)
Cc1cccc(Oc2nc(-c3ccncc3)nc3ccccc23)c1,EC50,[5],10.9 µM (active)
same,EC50,[7],> 150 µM (not active)
same,EC50,[8],12.5 µM (active)
COc1cc2c(cc1NC(=O)COC(=O)[C@@H](NS(=O)(=O)c1ccccc1)C(C)C)oc1ccccc12,EC50,[1],> 260 µM (inactive)
CC(=O)c1ccc(NC(=O)CCCN2C(=O)/C(=C/C(C)=C/c3ccccc3)SC2=S)cc1,EC50,[1],106 µM (active)
CCS(=O)(=O)N1Cc2ccccc2CC1C(=O)Nc1nnc(SCc2ccc(F)cc2)s1 (configuration not stated),EC50,[5],8.48 µM (active)
same,EC50,[7],> 150 µM (not active)
same,EC50,[8],91.2 µM (active)
Nc1nn2c(O)c3c(nc2c1N=Nc1ccc(Cl)cc1)CCCC3,EC50,[5],6.99 µM (active)
same,EC50,[7],> 150 µM (not active)
same,EC50,[8],> 150 µM (not active)
Cc1cccc(CN(C(S)=Nc2c(C)cccc2C)c2cccnc2)c1,EC50,[1],> 260 µM (inactive)
Oc1nc(CN2CC=C(c3ccccc3)CC2)nc2scc(-c3cccs3)c12,EC50,[5],12.2 µM (active)
same,EC50,[7],> 150 µM (not active)
same,EC50,[8],> 150 µM (not active)
COC(=O)c1ccc(C(NC(=O)c2ccccc2)[C@]2(C)C[C@H]2C2CCCCC2)cc1 (some centres not stated),AC50,[2],6.31 µM (inconclusive)
CC(=O)O[C@]12CC[N@+]3(C)CCCC[C@@H]3[C-]1Nc1ccccc12,AC50,[4],3.16 µM (inconclusive)
COc1ccc(C2CC3=Nc4ncnn4C(c4ccccc4)C3=C(O)C2)cc1 (configuration not stated),EC50,[1],> 260 µM (inactive)
Cn1cccc1C(=O)N1CCC2(CCCN(Cc3ccccc3)C2)CC1,AC50,[2],31.6 µM (inconclusive)
C/C(=N\NC(=S)NCc1ccccc1)c1cccc(Br)c1,EC50,[5],8.85 µM (active)
same,EC50,[7],> 150 µM (not active)
same,EC50,[8],> 150 µM (not active)
Clc1ccc(-c2nc(/C=N/N3CCOCC3)c3ccccn23)cc1,EC50,[1],> 260 µM (inactive)
CC1(C)CC(=O)C/C(=N/NC(=O)CCCOc2ccc(Cl)cc2Cl)C1,EC50,[1],> 260 µM (inactive)
CCOc1ccc(/C=N/NC(=S)NC2CC3CC2C2C=CCC32)cc1 (configuration not stated),EC50,[5],14.4 µM (active)
same,EC50,[7],> 150 µM (not active)
same,EC50,[8],19.8 µM (active)
O=C(N/N=C/c1c[nH]c2ccc(Br)cc12)c1ccn(Cc2ccc(Cl)cc2)n1,AC50,[9],39.8 µM (inconclusive)
same,AC50,[2],3.98 µM (inconclusive)
COc1ccc(C)cc1NC(=O)C/C(C)=N/NC(=O)Cc1cccc2ccccc12,EC50,[1],> 260 µM (inactive)
O=C(O)c1c(Br)c(Br)c(Br)c(Br)c1C1c2ccc(O)cc2Oc2cc(O)ccc21,AC50,[9],7.94 µM (inconclusive)
same,AC50,[2],3.98 µM (inconclusive)
Cc1ccc(C2CC(c3cccs3)=NN2C(=O)c2ccc(Br)o2)cc1 (configuration not stated),EC50,[5],3.12 µM (active)
same,EC50,[7],> 150 µM (not active)
same,EC50,[8],34.1 µM (active)
